Square brackets hold non-standard residues; d marks the D form. Ends that are not written are not given here. deamidated = deamidated asparagine; Met(O) = CS(=O)CC[C@H](N)C(=O)O
What follows are substances tested on mouse ADAMTS7 (assay: TMT10 TAILS N-terminomics, SMC1 experiment (Ad-mADAMTS7 WT vs EQ vs Luc, technical replicates, trypsin digest)). Conditions: TAILS HC Overlap; SMC1; log fold change mouse ADAMTS7 WT over catalytically inactive EQ.
Assay type: cell-based
Outline: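 Full-length mouse ADAMTS7 (WT or E373Q mutant, C-terminal 3xFLAG) or luciferase was transduced via adenovirus, 50 MOI, into HCA-SMC (SMC1, SMC2) or HUVEC. SMC1: pooled media, technical triplicates 400 ug; SMC2: process triplicates 300 ug; HUVEC: process triplicates 200 ug, bFGF2 10 ng/ml.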

Substance	SMC1 logFC.mWT.over.mEQ
VIM_333 (LKGTNESLER; listed as Homo sapiens)	4.39
THBS2_290 (LSENLKR; listed as Homo sapiens)	4.05
SERBP1_56 (QAAAQTNSNAAGKQLR; listed as Homo sapiens)	4.06
VIM_314 (QESTEYR; listed as Homo sapiens)	2.60
SRGN_59 (LLPGESNKIPR; listed as Homo sapiens)	4.33

Same assay, conditions: TAILS neo-N-terminal peptide abundance; log fold change, Ad-mADAMTS7 WT over EQ

Substance	logFC.mWT.over.mEQ
COL1A2_866 (LLGAPGILGLPGSR; listed as Homo sapiens)	3.72
COL1A2_731 (AAGQPGAKGER; listed as Homo sapiens)	1.03
CLEC11A_50 (HLQEALGLPAGR; listed as Homo sapiens)	1.42
COL8A1_90 (MKEIQPAPR; listed as Homo sapiens)	1.35
COL1A2_113 (FQGPAGEPGEPGQTGPAGAR; listed as Homo sapiens)	2.27
NID2_291 (HSSVPLGR; listed as Homo sapiens)	4.04
CDC37_43 (FQKEKEELDR; listed as Homo sapiens)	1.88
COL1A2_681 (VGAPGPAGATGDR; listed as Homo sapiens)	1.60
COL4A2_71 (YNGPPGLQGFPGLQGR; listed as Homo sapiens)	2.14
NUCB1_317 (FLASTQR; listed as Homo sapiens)	4.87
COL1A2_305 (LTGAKGAAGLPGVAGAPGLPGPR; listed as Homo sapiens)	1.63
MAP4_816 (VASTGPSSR; listed as Homo sapiens)	1.62
PXDN_1341 (SYQEDKPTKKTR; listed as Homo sapiens)	5.26
OS9_55 (SQSSDVVIVSSKYKQR; listed as Homo sapiens)	2.29
MAN2A1_51 (LQEKIDHLER; listed as Homo sapiens)	1.86
ECM1_43 (YAAPPSPPLSR; listed as Homo sapiens)	0.68
PXDN_1393 (QKTITDLR; listed as Homo sapiens)	4.77
COL4A2_172 (YALPKEER; listed as Homo sapiens)	5.21
OS9_54 ([code q]SQSSDVVIVSSKYKQR; also: modified N-terminal Gln; listed as Homo sapiens)	2.81
NUCB1_228 (LKEVWEELDGLDPNR; listed as Homo sapiens)	1.63
NUCB1_389 (LQQAVLHMEQR; listed as Homo sapiens)	2.09
COL1A2_91 (GPMGLMGPR; listed as Homo sapiens)	1.16
COL1A2_389 (SAGPPGPPGLR; listed as Homo sapiens)	0.72
COL1A2_1127 (SLRPKDYEVDATLKSLNNQIETLLTPEGSR; listed as Homo sapiens)	2.68
MMP1_24 (LETQEQDVDLVQKYLEKYYNLKN(deamidated)DGR; listed as Homo sapiens)	2.31
POLR3G_88 (LFCSHWSHIPGFK; listed as Homo sapiens)	1.51

Substance	logFC.mWT.over.mEQ
COL1A2_1028 (LQGLPGIAGHHGDQGAPGSVGPAGPR; listed as Homo sapiens)	1.79
NID2_374 (VGGPDLKGQVEPWDER; listed as Homo sapiens)	4.94
COL1A2_960 (AGAPGPHGPVGPAGKHGNR; listed as Homo sapiens)	2.91
MAP1B_1065 (LTTPTKQLGAQSPGR; listed as Homo sapiens)	1.30
PAPPA_41 (AAGPATCATR; listed as Homo sapiens)	3.48
CDH11_467 (HQEAKVPVAIR; listed as Homo sapiens)	2.06
POSTN_754 (IITGPEIKYTR; listed as Homo sapiens)	1.68
COL1A2_630 (VGTAGPSGPSGLPGER; listed as Homo sapiens)	1.45
COL1A2_80 (QYDGKGVGLGPGPMGLMGPR; listed as Homo sapiens)	2.36
MAP4_815 (AVASTGPSSR; listed as Homo sapiens)	1.19
POSTN_413 (FSDDTLSMDQR; listed as Homo sapiens)	2.31
PPP1R18_295 (LSETLTR; listed as Homo sapiens)	3.68
NID2_951 (YAYPGAR; listed as Homo sapiens)	3.92
POSTN_790 (FIEGGDGHLFEDEEIKR; listed as Homo sapiens)	1.18
NID2_467 (LEDNIGSNTEVFTYNAANKETCEHNHR; listed as Homo sapiens)	2.66
COL5A1_544 (SQAQAILQQAR; listed as Homo sapiens)	1.08
LTBP2_1602 (EAGVHFR; listed as Homo sapiens)	0.99
PDLIM4_104 (IDPEIQDGSPTTSR; listed as Homo sapiens)	1.13
COL1A2_1037 (HHGDQGAPGSVGPAGPR; listed as Homo sapiens)	3.09
COL1A2_270 (VGNAGPAGPAGPR; listed as Homo sapiens)	2.82
COL1A2_425 (ASGPAGVR; listed as Homo sapiens)	1.34
COL18A1_1505 (LQPPVVQLHDSNPYPR; listed as Homo sapiens)	1.42
PSAP_171 (F[Met(O)]ANIPLLLYPQDGPR; listed as Homo sapiens)	1.03
POSTN_807 (LLQGDTPVR; listed as Homo sapiens)	1.17
MGAT4B_28 (LSGQKGDVVDVYQR; listed as Homo sapiens)	1.66
